Source: ChEMBL document CHEMBL1201862, “PubChem BioAssay data set” (2004)
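Exposure lasted 48 hours, with cells grown in 96-well plates and compounds tested at five concentrations. GI50: concentration for 50% inhibition of growth.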 Activity calls are given as the source filed them. Cut-off read from the data, not from the text of the source: active = GI50 up to about 1.1 µM and inactive = higher.

Assays:
Test in all cases: growth of human tumour cells (NCI), 48 h
[1] = system: RPMI-8226
[2] = system: SW-620
[3] = system: SR
[4] = system: HCC 2998
[5] = system: SK-MEL-28
[6] = system: T47D
[7] = system: A549
[8] = system: UACC-62
[9] = system: MDA-N
[10] = system: MDA-MB-435
[11] = system: HT-29
[12] = system: HCT-116
[13] = system: SF-295
[14] = system: MCF7
[15] = system: TK-10
[16] = system: K562
[17] = system: OVCAR-5
[18] = system: HL-60
[19] = system: NCI-H522

Row | Structure (SMILES) | GI50 [1] | GI50 [2] | GI50 [3] | GI50 [4] | GI50 [5] | GI50 [6] | GI50 [7] | GI50 [8] | GI50 [9] | GI50 [10] | GI50 [11] | GI50 [12] | GI50 [13] | GI50 [14] | GI50 [15] | GI50 [16] | GI50 [17] | GI50 [18] | GI50 [19]
1 | CC/C(C)=C1\OC(=O)C(C)C(O)C(Cc2cccnc2)NC(=O)C(NC(=O)c2ncccc2O)C(C)OC1=O (configuration not stated) | 90.8 µM (inactive) | > 100 µM (inactive) | > 100 µM (inactive) | > 100 µM (inactive) | > 100 µM (inactive) | > 100 µM (inactive) | 74.3 µM (inactive) | > 100 µM (inactive) | > 100 µM (inactive) | > 100 µM (inactive) | 42.2 µM (inactive) | 82.2 µM (inactive) | 44.4 µM (inactive) | > 100 µM (inactive) | > 100 µM (inactive) | > 100 µM (inactive) | > 100 µM (inactive) | 62.8 µM (inactive) | 
2 | C=CCO[C@]1(CC=C)C(=O)C(=O)OC1C1COC(C)(C)O1 (some centres not stated) | 25.9 µM (inactive) | 18.6 µM (inactive) | 22.9 µM (inactive) | > 100 µM (inactive) | > 10 µM (inactive) | 34.8 µM (inactive) | > 100 µM (inactive) |  | 36 µM (inactive) | 36 µM (inactive) | 19.8 µM (inactive) | 32 µM (inactive) | > 100 µM (inactive) | 19.1 µM (inactive) |  | 27.4 µM (inactive) | > 100 µM (inactive) | > 10 µM (inactive) | 21.2 µM (inactive)
3 | c1ccc(-c2nc3ccccc3n3nnnc23)cc1 | > 100 µM (inactive) | > 100 µM (inactive) | > 100 µM (inactive) | > 100 µM (inactive) | > 100 µM (inactive) | 20.2 µM (inactive) | > 100 µM (inactive) | > 100 µM (inactive) | > 100 µM (inactive) | > 100 µM (inactive) | > 100 µM (inactive) | > 100 µM (inactive) |  | > 100 µM (inactive) | > 100 µM (inactive) | > 100 µM (inactive) | > 100 µM (inactive) | > 100 µM (inactive) | 
4 | O=C(C[C@@H]1CCCN2CCCC[C@H]12)N1c2ccccc2Sc2ccc(Cl)cc21 | 20.2 µM (inactive) | 13.9 µM (inactive) | 19.3 µM (inactive) |  | 13.2 µM (inactive) | 20.5 µM (inactive) | 16.6 µM (inactive) |  | 16 µM (inactive) | 14.5 µM (inactive) | 10.6 µM (inactive) | 16 µM (inactive) | 19.5 µM (inactive) | 18.2 µM (inactive) | 20 µM (inactive) | 13.8 µM (inactive) | 13.4 µM (inactive) | 14.5 µM (inactive) | 13.5 µM (inactive)
5 | COc1cc(Br)cc2c1O[C@H]1C(=O)CC3CC21CCN3C (some centres not stated) | 21.8 µM (inactive) | 30.5 µM (inactive) | 33.9 µM (inactive) | 34.1 µM (inactive) | > 100 µM (inactive) | 23.2 µM (inactive) | 94.4 µM (inactive) | > 100 µM (inactive) | 66.2 µM (inactive) | 52.2 µM (inactive) | 42.2 µM (inactive) | 42 µM (inactive) | > 100 µM (inactive) | 34.1 µM (inactive) |  | 19.8 µM (inactive) | > 100 µM (inactive) | 16.4 µM (inactive) | 
6 | COc1cccc(NC(=O)CC(=O)N2N=C(C)C(/N=N/c3ccc(S(=O)(=O)CCOS(=O)(=O)O)cc3)C2=O)c1 (configuration not stated) | 2.75 µM (inactive) | 2.99 µM (inactive) | 1.45 µM (inactive) | 15.5 µM (inactive) | 4.09 µM (inactive) | 11.4 µM (inactive) | 18.9 µM (inactive) |  | 3.69 µM (inactive) | 2.65 µM (inactive) | 3.76 µM (inactive) | 3.22 µM (inactive) | 15.3 µM (inactive) | 2.09 µM (inactive) | 5.75 µM (inactive) | 2.18 µM (inactive) | 29.3 µM (inactive) | 1.66 µM (inactive) | 0.796 µM (active)
7 | O=[N+]([O-])/C=C/c1cc2ccccc2[nH]1 | 2.96 µM (inactive) | 8.83 µM (inactive) | 5.06 µM (inactive) |  | 25.4 µM (inactive) | 16.2 µM (inactive) | 17.5 µM (inactive) | 18.2 µM (inactive) | 3.24 µM (inactive) | 2.59 µM (inactive) | 15.8 µM (inactive) | 4.31 µM (inactive) | 19.5 µM (inactive) | 4.03 µM (inactive) | 17.5 µM (inactive) | 13.8 µM (inactive) | 19.5 µM (inactive) | 4.33 µM (inactive) | 9.35 µM (inactive)
8 | CSc1ccc(C2C(Cl)C(=O)N2NC(=O)c2c(Cl)c(Cl)c(Cl)c(Cl)c2-c2nc3ccccc3[nH]2)cc1 (configuration not stated) |  | 25.8 µM (inactive) | 2.9 µM (inactive) | 20.2 µM (inactive) | 17.2 µM (inactive) | 4.28 µM (inactive) | 31.4 µM (inactive) | 29.8 µM (inactive) | 21.5 µM (inactive) | 13.3 µM (inactive) | 33.3 µM (inactive) | 15.8 µM (inactive) | 33.1 µM (inactive) | 19.3 µM (inactive) |  | 18.1 µM (inactive) | 22.3 µM (inactive) | 19.1 µM (inactive) | 1.83 µM (inactive)
9 | CC(C)(O)/C=C\P(C)(=O)c1ccccc1 (configuration not stated) | 39.4 µM (inactive) | > 100 µM (inactive) | > 100 µM (inactive) | > 100 µM (inactive) | > 100 µM (inactive) | > 100 µM (inactive) | > 100 µM (inactive) | > 100 µM (inactive) | > 100 µM (inactive) | > 100 µM (inactive) | > 100 µM (inactive) | > 100 µM (inactive) | > 100 µM (inactive) | > 100 µM (inactive) | > 100 µM (inactive) | > 100 µM (inactive) | > 100 µM (inactive) |  | > 100 µM (inactive)
10 | O=C(NN1C(=O)CSC1c1ccco1)c1ccncc1 (configuration not stated) | > 100 µM (inactive) | > 100 µM (inactive) |  | > 100 µM (inactive) | > 100 µM (inactive) | > 100 µM (inactive) | > 100 µM (inactive) | > 100 µM (inactive) | > 100 µM (inactive) | > 100 µM (inactive) | > 100 µM (inactive) | > 100 µM (inactive) | > 100 µM (inactive) | > 100 µM (inactive) | > 100 µM (inactive) | > 100 µM (inactive) | > 100 µM (inactive) | > 100 µM (inactive) | > 100 µM (inactive)
11 | Cn1c(=O)c2c(ncn2CCNC(CO)C(O)c2ccc([N+](=O)[O-])cc2)n(C)c1=O (configuration not stated) | > 100 µM (inactive) | > 10 µM (inactive) | > 100 µM (inactive) | > 10 µM (inactive) | > 100 µM (inactive) | 5.64 µM (inactive) | > 100 µM (inactive) | > 100 µM (inactive) | > 100 µM (inactive) | > 100 µM (inactive) | > 100 µM (inactive) | > 100 µM (inactive) | > 100 µM (inactive) | > 100 µM (inactive) | > 100 µM (inactive) | > 100 µM (inactive) |  | > 100 µM (inactive) | > 100 µM (inactive)
12 | Nc1nc2c(c(-c3cccc(Cl)c3)n1)COC/C2=C\c1cccc(Cl)c1 | > 100 µM (inactive) | > 100 µM (inactive) |  | 56.8 µM (inactive) | > 100 µM (inactive) | 82.6 µM (inactive) |  | > 100 µM (inactive) | > 100 µM (inactive) | > 100 µM (inactive) | > 100 µM (inactive) | > 100 µM (inactive) | > 100 µM (inactive) | > 100 µM (inactive) | 41.8 µM (inactive) | > 100 µM (inactive) | > 100 µM (inactive) | > 100 µM (inactive) | > 100 µM (inactive)
13 | Cc1ccc(S(=O)(=O)Oc2ccc(OS(=O)(=O)c3ccc(C)cc3)c3c2C(=O)c2ccccc2C3=O)cc1 |  | > 100 µM (inactive) | > 100 µM (inactive) | > 100 µM (inactive) | > 100 µM (inactive) | > 100 µM (inactive) | > 100 µM (inactive) | > 100 µM (inactive) | > 100 µM (inactive) | > 100 µM (inactive) | > 100 µM (inactive) | > 100 µM (inactive) |  | > 100 µM (inactive) | > 100 µM (inactive) | > 100 µM (inactive) | > 100 µM (inactive) | > 100 µM (inactive) | > 100 µM (inactive)
14 | CCc1n[nH]c(=O)n1NC(=O)CCCC(=O)O | > 100 µM (inactive) | > 100 µM (inactive) | > 100 µM (inactive) | > 100 µM (inactive) |  | > 100 µM (inactive) | > 100 µM (inactive) | > 100 µM (inactive) | > 100 µM (inactive) | > 100 µM (inactive) | > 100 µM (inactive) | > 100 µM (inactive) | > 100 µM (inactive) | > 100 µM (inactive) | > 100 µM (inactive) | > 100 µM (inactive) | > 100 µM (inactive) |  | > 100 µM (inactive)
15 | CC(C)(C)c1cc(C2=NN(c3ccccc3)C(c3ccccc3)C2)cc(C(C)(C)C)c1O (configuration not stated) | > 100 µM (inactive) | > 100 µM (inactive) | 29.3 µM (inactive) |  | > 100 µM (inactive) | 31.5 µM (inactive) | > 100 µM (inactive) | > 100 µM (inactive) | > 100 µM (inactive) | > 100 µM (inactive) | > 100 µM (inactive) | > 100 µM (inactive) | > 100 µM (inactive) | 93.5 µM (inactive) | > 100 µM (inactive) | > 100 µM (inactive) | > 100 µM (inactive) | 12.1 µM (inactive) | > 100 µM (inactive)
